Literature values as cited in patent US20250018217A1, “PH[…] THERAPY APPARATUS AND METHODS FOR TREATING ORAL DISEASE” (Biolux Group SA, priority 2022, published 2025).
“Also recorded” adds a separate entry of the source. Where two headings read alike, the source gives them in different places.

Key:
[1] = daily oral supplement of 2,000 IU to 6,000 IU in adults, within 3 months

Phthalocynine
Antimicrobial activity (in solution) (microbial species; excitation wavelength 670 nm): [74]A. hidrophila

vitamin D
Blood levels of vitamin D [1]: 40 ng/mL

CCNc1cc2[s+]c3cc(NCC)c(C)cc3nc2cc1C.[Cl-] [New Methylene blue]
Antimicrobial activity (in solution) (microbial species; 00 uM, excitation wavelength 635-652): [17]A. baumannii

CN(C)c1ccc2nc3ccc(=[N+](C)C)cc-3sc2c1 [Methylene blue]
Antimicrobial activity (in solution) (microbial species; 25 ug/ml, excitation wavelength 632 nm): [8] Various

COc1cc(/C=C/C(=O)CC(=O)/C=C/c2ccc(O)c(OC)c2)ccc1O [Curcumin]
Antimicrobial activity (in solution) (microbial species; 0.75 to 5 g/l, excitation wavelength 547 nm): [50]S. mutans; also recorded: [51]L. acidophilus

O=C1OC2(c3ccccc31)c1cc(I)c(O)c(I)c1Oc1c2cc(I)c(O)c1I [Erythrosine]
Antimicrobial activity (in solution) (microbial species; excitation wavelength 500-550 nm): [64]S. mutans

Cc1cc(=[N+](C)C)cc2sc3cc(N(C)C)cc(C)c3nc1-2.[Cl-] [Dimethyl methylene blue]
Antimicrobial activity (in solution) (microbial species; 800 um, excitation wavelength 635-652): [12]A. baumannii

O=C([O-])c1c(Cl)c(Cl)c(Cl)c(Cl)c1-c1c2cc(I)c(=O)c(I)c-2oc2c(I)c([O-])c(I)cc12.[Na+].[Na+] [Rose Bengal]
Antimicrobial activity (in solution) (microbial species; 10 um, excitation wavelength 532 nm): [26]E. faecalis

Sulfonic porphyrins (TPPS)
Antimicrobial activity (in solution) (microbial species; no concentration or wavelength printed (TPPS)): [42]S. aureus

Cc1cc2nc3ccc(N(C)C)cc3[s+]c2cc1N.[Cl-] [Toluidine blue O]
Antimicrobial activity (in solution) (microbial species; 100 mg/l, excitation wavelength 410 nm-660 nm): [21]E. coli
